Patent publication US11390637B2, “Salts of antiviral phosphonate analogues and process for preparation thereof” (CIPLA LIMITED, priority 2017, dated 2022)

Assays:
[1] = In-vitro intrinsic dissolution of 200 mg pellets of API without excipients; assay type: physicochemical; conditions: for % release of Compound (I) from the respective Salts: Table 8, 200 mg pellet, 0.01N HCl, 37° C., paddle 75 rpm
Procedure: A tableting mixture (200 mg) comprising solely salts of (((1-(6-amino-9H-purin-9-yl)propan-2-yloxy)methyl) (phenoxy) phosphoryloxy) methyl pivalate-prepared according to any one of the examples 1 to 10 (i.e. with no excipients) was prepared and compressed to a pellet using an automatic KBR press operating at a compression pressure of 2 tones for 2 minutes.
Similarly a tableting mixture (200 mg) comprising a solely TAF (i.e. with no excipients) was prepared and compressed to a pellet using an automatic KBR press operating at a compression pressure of 2 tones for 2 minutes.
A tableting mixture (200 mg) comprising solely TDF (i.e. with no excipients) was prepared and compressed to a pellet using an automatic KBR press operating at a compression pressure of 2 tones for 2 minutes.
In-vitro dissolution studies were performed on the 200 mg pellet in a LAB INDIA DISSO 2000.
The pellet was fixed in a PFTE holder, such that only the pellet surface came into contact with the dissolution medium. The PFTE loaded holder was placed in the dissolution vessel containing 900 ml of 0.1M of HCl having […] at 37±0.5° C. Two pellets were measured for each run of the design of the experiments. Stirring was performed with a paddle rotating at 75 rpm. […]
Dissolution Media: 0.01N HCl
Bath temperature: 37.5° C.
Sample Preparation: Pellets were prepared by pressing sample with 2 ton pressure for 2 min
Note: Aliquots were analysed on HPLC.
The concentration of (((1-(6-amino-9H-purin-9-yl)propan-2-yloxy)methyl) (phenoxy) phosphoryloxy) methyl pivalate was quantified by HPLC UV method at a maximum wavelength of 300 nm under the conditions as specified below:
Standard Preparation: 25 mg standard dissolved to 25 ml with dissolution medium. 5 ml of this solution diluted to 25 ml with dissolution medium. Further 5 ml of this solution was diluted to 10 ml with diluent.
Sample Preparation: 200 mg of Sample pellets were prepared and subjected to dissolution. 10 ml of Aliquot was removed from the dissolution basket at predetermined time intervals. 5 ml of these aliquot was diluted to 10 ml with Diluent.
200 mg of input API of fumarate salt of (((1-(6-amino-9H-purin-9-yl)propan-2-yloxy)methyl) (phenoxy) phosphoryloxy) methyl pivalate used for pellet preparation.
The percentage of (((1-(6-amino-9H-purin-9-yl)propan-2-yloxy)methyl) (phenoxy) phosphoryloxy) methyl pivalate (TD), Tenofovir Alafenamide (TAF) and Tenofovir Disoproxil (TDF) released from the respective fumarate salt tablet were plotted against time as shown in FIG. 19. The intrinsic dissolution rate was derived from the slope of this curve.
To measure the intrinsic dissolution of the Salts of (((1-(6-amino-9H-purin-9-yl)propan-2-yloxy)methyl) (phenoxy) phosphoryloxy) methyl pivalate, samples were measured to compare the influence of the different parameter settings. At appropriate time intervals, an automated sample collector removes aliquots from the dissolution medium for analysis. The time interval for sampling can vary, for example, from 5 to 120 minutes, depending on the properties of the drug and dissolution medium used. Suitable dissolution equipment for these operations includes LAB INDIA DISSO 2000. Bath temperature—37.5° C.
200 mg of input API of each fumarate, oxalate, phosphate, citrate, succinate and tartrate Salts of (((1-(6-amino-9H-purin-9-yl)propan-2-yloxy)methyl) (phenoxy) phosphoryloxy) methyl pivalate used for pellet preparation.
The percentage of (((1-(6-amino-9H-purin-9-yl)propan-2-yloxy)methyl) (phenoxy) phosphoryloxy) methyl pivalate released from the respective salts tablet were plotted against time as shown in FIG. 20. The intrinsic dissolution rate was derived from the slope of this curve.

[2] = Hygroscopicity (statement, no method described); assay type: physicochemical; conditions: in words
[3] = Solubility in physiologically acceptable solvents (statement, no method described); conditions: in words

| Compound | % release of Compound (I) from the respective Salts ([1]; 5 min) [%] | % release of Compound (I) from the respective Salts ([1]; 15 min) [%] | % release of Compound (I) from the respective Salts ([1]; 30 min) [%] | % release of Compound (I) from the respective Salts ([1]; 45 min) [%] | % release of Compound (I) from the respective Salts ([1]; 60 min) [%] | % release of Compound (I) from the respective Salts ([1]; 90 min) [%] | % release of Compound (I) from the respective Salts ([1]; 120 min) [%] | % release of Compound (I) from the respective Salts ([1]; 150 min) [%] | % release of Compound (I) from the respective Salts ([1]; 180 min) [%] | % release of Compound (I) from the respective Salts ([1]; 210 min) [%] | % release of Compound (I) from the respective Salts ([1]; 240 min) [%] | dissolution profile compared to other salts ([1]; in words, from the data of Table 8) | hygroscopicity [2] | solubility in physiologically acceptable solvents [3] |
| --- | --- | --- | --- | --- | --- | --- | --- | --- | --- | --- | --- | --- | --- | --- |
| CC(Cn1cnc2c(N)ncnc21)OCP(=O)(OCOC(=O)C(C)(C)C)Oc1ccccc1.O=P(O)(O)O (stereo not drawn) [Phosphate, (((1-(6-amino-9H-purin-9-yl)propan-2-yloxy)methyl) (phenoxy)phosphoryloxy) methyl pivalate phosphoric acid salt] | 19 | 59 | 103 | 104 | 105 | 105 | 106 | 105 | 104 | 104 | 105 | fastest dissolution profile | not hygroscopic | readily soluble |
| CC(Cn1cnc2c(N)ncnc21)OCP(=O)(OCOC(=O)C(C)(C)C)Oc1ccccc1.O=C(O)CCC(=O)O (stereo not drawn) [Succinate, (((1-(6-amino-9H-purin-9-yl)propan-2-yloxy)methyl) (phenoxy)phosphoryloxy) methyl pivalate succinic acid salt] | 3 | 3 | 16 | 23 | 30 | 45 | 59 | 74 | 85 | 90 | 92 | – | not hygroscopic | readily soluble |
